Holding throughout (experiment): liposome pelleting
Common to all, as to format: binding
Settings in all cases: 10 mol% lipid in POPC/POPE liposomes, 20 µM protein, pH 7.2, 125 mM NaCl

One test deals with T1, SNX3 (Homo sapiens, UniProt O60493).
T1 construct: PX domain only, N-terminal GST removed by thrombin, E. coli

For another test, the target named is T2, SNX16 (Homo sapiens, UniProt P57768).
T2 construct: PX domain only, N-terminal GST removed by thrombin, E. coli
T2 sequence (P57768 105-218 limits assumed): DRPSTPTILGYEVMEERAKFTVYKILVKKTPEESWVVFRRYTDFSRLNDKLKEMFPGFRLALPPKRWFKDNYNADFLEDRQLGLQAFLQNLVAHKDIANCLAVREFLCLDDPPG

The target of a further test is T3, p40phox (Homo sapiens, UniProt Q15080).
T3 construct: gene NCF4; PX domain only, N-terminal GST removed by thrombin, E. coli
T3 sequence (Q15080 19-140 limits assumed): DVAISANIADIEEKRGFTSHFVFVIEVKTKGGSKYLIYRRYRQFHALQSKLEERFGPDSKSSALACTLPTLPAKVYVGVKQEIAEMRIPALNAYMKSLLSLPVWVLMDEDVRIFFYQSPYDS

The next test addresses T4, SNX27 (Homo sapiens, UniProt Q96L92).
T4 construct: PX domain only, N-terminal GST removed by thrombin, E. coli

A further test concerns the target T5, SNX17 (Homo sapiens, UniProt Q15036).
T5 construct: PX domain only, N-terminal GST removed by thrombin, E. coli
T5 sequence (Q15036 1-109 limits assumed): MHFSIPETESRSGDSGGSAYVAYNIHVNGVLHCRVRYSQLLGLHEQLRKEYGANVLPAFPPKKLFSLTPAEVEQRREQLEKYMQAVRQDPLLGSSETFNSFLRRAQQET

The target in another test is T6, SNX19 (Homo sapiens, UniProt Q92543).
T6 construct: a GST-tagged form was also made), E. coli
T6 sequence (Q92543 533-663 limits assumed): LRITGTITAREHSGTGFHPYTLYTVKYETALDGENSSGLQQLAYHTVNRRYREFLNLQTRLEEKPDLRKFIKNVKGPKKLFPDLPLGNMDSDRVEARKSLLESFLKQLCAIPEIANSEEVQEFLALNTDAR

Another test has as its target T7, SNX7 (Homo sapiens, UniProt Q9UNH6).
T7 construct: PX domain only, N-terminal GST removed by thrombin, E. coli
T7 sequence (Q9UNH6 30-151 limits assumed): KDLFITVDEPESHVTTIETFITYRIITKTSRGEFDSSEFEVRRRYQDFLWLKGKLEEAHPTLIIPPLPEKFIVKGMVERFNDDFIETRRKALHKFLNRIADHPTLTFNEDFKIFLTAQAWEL

The next test addresses T8, PXK (Homo sapiens, UniProt Q7Z7A4).
T8 construct: PX domain only, N-terminal GST removed by thrombin, E. coli
T8 sequence (Q7Z7A4 14-126 limits assumed): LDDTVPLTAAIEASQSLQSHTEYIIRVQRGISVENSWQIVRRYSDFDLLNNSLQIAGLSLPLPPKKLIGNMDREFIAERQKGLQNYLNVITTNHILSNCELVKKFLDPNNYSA

SMILES strings stand for the structures.

T1 sequence (O60493 27-151 limits assumed): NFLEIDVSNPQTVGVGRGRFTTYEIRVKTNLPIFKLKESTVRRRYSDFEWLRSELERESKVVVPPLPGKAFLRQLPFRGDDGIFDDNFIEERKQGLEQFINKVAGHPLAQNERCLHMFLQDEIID

On to `CCCCCCCC(=O)OC[C@H](COP(=O)(O)O[C@@H]1[C@H](O)[C@H](OP(=O)(O)O)[C@@H](O)[C@H](O)[C@H]1O)OC(=O)CCCCCCC` [PtdIns3P, 1,2-dioctanoyl-sn-glycero-3-(phosphoinositol-3-phosphate)], for which the liposome pelleting result on SNX3 was “exclusive interaction with liposomes containing PtdIns3P (SNX3”; on SNX16, “(SNX3, SNX7, SNX19, SNX17, SNX27, p40phox, PXK, and SNX16)”; on p40phox, “(SNX3, SNX7, SNX19, SNX17, SNX27, p40phox, PXK, and SNX16)”; at SNX27, “exclusive interaction with liposomes containing PtdIns3P (SNX3, SNX7, SNX19, SNX17, SNX27”; on SNX17, “exclusive interaction with liposomes containing PtdIns3P (SNX3, SNX7, SNX19, SNX17”; at SNX19, “exclusive interaction with liposomes containing PtdIns3P (SNX3, SNX7, SNX19”. The liposome pelleting result at SNX7 was “exclusive interaction with liposomes containing PtdIns3P (SNX3, SNX7”; on PXK it was “(SNX3, SNX7, SNX19, SNX17, SNX27, p40phox, PXK, and SNX16)”.

Source of the values: publication PMC6449406, “Classification of the human phox homology (PX) domains based on their phosphoinositide binding specificities” (Nature Communications, 2019).
